In article PMC5379642, “Mechanistic Investigations of the Mitochondrial Complex I Inhibitor Rotenone in the Context of Pharmacological and Safety Evaluation” (Scientific Reports, 2017):

Biological target: T1, complex I (NADH ubiquinone reductase) (Rattus norvegicus, UniProt A6K8N6+P03889+Q641Y2)
T1 construct: gene Ndufs2; native multi-subunit complex in mitochondria isolated from frozen rat liver; with NADH dehydrogenase [ubiquinone] flavoprotein 1, mitochondrial; NADH dehydrogenase [ubiquinone] flavoprotein 2, mitochondrial; NADH-ubiquinone oxidoreductase 75 kDa subunit, mitochondrial; NADH dehydrogenase [ubiquinone] iron-sulfur protein 3, mitochondrial; NADH dehydrogenase [ubiquinone] iron-sulfur protein 8, mitochondrial; NADH-ubiquinone oxidoreductase chain 2; NADH-ubiquinone oxidoreductase chain 3; NADH-ubiquinone oxidoreductase chain 4; NADH-ubiquinone oxidoreductase chain 4L; NADH-ubiquinone oxidoreductase chain 5; NADH-ubiquinone oxidoreductase chain 6
Experiment: NADH oxidation at […] nm, rotenone-sensitive rate, mitochondria from dosed rats
Conditions: ex vivo after 400 ppm dietary rotenone for 1, 3 or 14 days, no in vitro dose, decylubiquinone, pH 7.2, KCN and antimycin present

T1 sequence (Q641Y2 34-463): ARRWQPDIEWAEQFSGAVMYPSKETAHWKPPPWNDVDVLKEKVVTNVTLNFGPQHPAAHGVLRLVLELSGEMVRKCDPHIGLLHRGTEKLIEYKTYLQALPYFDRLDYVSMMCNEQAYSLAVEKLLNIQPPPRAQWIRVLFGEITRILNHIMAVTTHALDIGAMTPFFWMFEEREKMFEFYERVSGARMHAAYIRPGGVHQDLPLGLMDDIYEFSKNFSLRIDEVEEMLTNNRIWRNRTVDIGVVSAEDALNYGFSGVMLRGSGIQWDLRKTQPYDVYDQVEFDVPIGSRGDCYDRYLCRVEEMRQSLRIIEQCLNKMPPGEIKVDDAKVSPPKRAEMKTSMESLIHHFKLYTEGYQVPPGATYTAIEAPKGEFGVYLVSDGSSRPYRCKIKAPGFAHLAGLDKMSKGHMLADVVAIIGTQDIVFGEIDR
T1 sequence (A6K8N6 39-218): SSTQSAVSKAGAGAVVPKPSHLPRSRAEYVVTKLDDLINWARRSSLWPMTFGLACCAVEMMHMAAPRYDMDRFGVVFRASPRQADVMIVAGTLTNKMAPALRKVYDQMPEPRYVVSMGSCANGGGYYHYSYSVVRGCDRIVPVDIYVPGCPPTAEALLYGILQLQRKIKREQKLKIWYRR
T1 sequence (P03889 whole entry): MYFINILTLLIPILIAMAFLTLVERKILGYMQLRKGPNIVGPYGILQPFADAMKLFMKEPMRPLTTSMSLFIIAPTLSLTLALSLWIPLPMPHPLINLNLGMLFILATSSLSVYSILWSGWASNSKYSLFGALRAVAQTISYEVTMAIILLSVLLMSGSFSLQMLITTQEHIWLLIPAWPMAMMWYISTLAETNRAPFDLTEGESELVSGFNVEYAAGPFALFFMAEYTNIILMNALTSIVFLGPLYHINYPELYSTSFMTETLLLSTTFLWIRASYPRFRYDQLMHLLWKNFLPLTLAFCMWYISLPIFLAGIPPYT
T1 sequence (Q5XIH3 21-464 partner): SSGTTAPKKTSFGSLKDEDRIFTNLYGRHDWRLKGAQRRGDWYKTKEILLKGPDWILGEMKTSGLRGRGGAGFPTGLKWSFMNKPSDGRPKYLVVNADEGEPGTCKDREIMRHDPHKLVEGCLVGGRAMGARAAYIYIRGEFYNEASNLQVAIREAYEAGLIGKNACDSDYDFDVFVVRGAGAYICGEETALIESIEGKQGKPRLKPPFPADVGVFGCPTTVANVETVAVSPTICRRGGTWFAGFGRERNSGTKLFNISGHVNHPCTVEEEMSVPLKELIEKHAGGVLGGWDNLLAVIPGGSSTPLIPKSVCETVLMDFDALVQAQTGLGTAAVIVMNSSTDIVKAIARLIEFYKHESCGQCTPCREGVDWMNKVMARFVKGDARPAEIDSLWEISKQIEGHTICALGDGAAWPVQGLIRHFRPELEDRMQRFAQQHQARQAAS

## C=C(C)[C@H]1Cc2c(ccc3c2O[C@@H]2COc4cc(OC)c(OC)cc4[C@@H]2C3=O)O1 [rotenone]
  % decrease of complex I activity vs time-matched control: 70–80%
